Test results taken from PubChem BioAssay AID248 (DTP/NCI, 2004).
Several values for one entry are separate records, joined by “and”; a condition that tells them apart may be missing. Equal values may be shown once. Inconclusive results and toxic doses are left out. No stated cut-off is given here; in the data, active means T/C of 150% or more; inactive means T/C below 125%.

Tested on: L1210 leukemia ip in BDF1 mice, survival T/C
Test: NCI In Vivo Anticancer Drug Screen. Data for tumor model L1210 Leukemia (intraperitoneal) in B6D2F1 (BDF1) mice
Conditions: endpoint: mean survival time, higher = longer survival
Summary of the method: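 Antitumor effect is assessed in tumor-bearing animals. Survival in the compound arm is compared with a vehicle-dosed control arm and expressed as their quotient.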

[1] = dose: 100.0 mg/kg/injection, schedule: Q01DX009 (ip), vehicle: Klucel (hydroxypropylcellulose) (HPC)
[2] = dose: 100.0 mg/kg/injection, schedule: Q04DX003 (ip), vehicle: Klucel (hydroxypropylcellulose) (HPC)
[3] = dose: 200.0 mg/kg/injection, schedule: Q01DX009 (ip), vehicle: Klucel (hydroxypropylcellulose) (HPC)
[4] = dose: 200.0 mg/kg/injection, schedule: Q04DX003 (ip), vehicle: Klucel (hydroxypropylcellulose) (HPC)
[5] = dose: 400.0 mg/kg/injection, schedule: Q01DX009 (ip), vehicle: Klucel (hydroxypropylcellulose) (HPC)
[6] = dose: 400.0 mg/kg/injection, schedule: Q04DX003 (ip), vehicle: Klucel (hydroxypropylcellulose) (HPC)
[7] = dose: 25.0 mg/kg/injection, schedule: Q04DX003 (ip), vehicle: saline

Measured: T/C

O=C(NCCCl)NC1c2cc(Cl)ccc2-c2c(Cl)cc(Cl)cc21 (centres undefined)
inactive: dose: 100.0 mg/kg/injection, schedule: Q01DX001 (ip), vehicle: Klucel (hydroxypropylcellulose) (HPC) 92 % of control | [1] 87 % of control | [2] 94 % of control | dose: 200.0 mg/kg/injection, schedule: Q01DX001 (ip), vehicle: Klucel (hydroxypropylcellulose) (HPC) 96 % of control | [3] 90 % of control | [4] 98 % of control | dose: 400.0 mg/kg/injection, schedule: Q01DX001 (ip), vehicle: Klucel (hydroxypropylcellulose) (HPC) 92 % of control | [5] 95 % of control | [6] 98 % of control

O=C(Nc1cccc(-c2nc3ccccc3[nH]2)c1)c1ccc(C(=O)Nc2cccc(-c3nc4ccccc4[nH]3)c2)cc1
inactive: dose: 15.0 mg/kg/injection, schedule: Q01DX Z (ip), vehicle: carboxymethylcellulose (CMC) 91 % of control | dose: 30.0 mg/kg/injection, schedule: Q01DX Z (ip), vehicle: carboxymethylcellulose (CMC) 90 % of control | dose: 60.0 mg/kg/injection, schedule: Q01DX Z (ip), vehicle: carboxymethylcellulose (CMC) 87 % of control | dose: 120.0 mg/kg/injection, schedule: Q01DX Z (ip), vehicle: carboxymethylcellulose (CMC) 86 % of control | dose: 125.0 mg/kg/injection, schedule: Q01DX Z (ip), vehicle: water 95 % of control | dose: 250.0 mg/kg/injection, schedule: Q01DX Z (ip), vehicle: water 96 % of control | dose: 500.0 mg/kg/injection, schedule: Q01DX Z (ip), vehicle: water 112 % of control

Brc1ccc2[nH]c3c(c2c1)CSc1ccccc1-3
inactive: dose: 100.0 mg/kg/injection, schedule: Q04DX003 (ip), vehicle: saline with Tween-80 105 % of control | dose: 200.0 mg/kg/injection, schedule: Q04DX003 (ip), vehicle: saline with Tween-80 99 % of control | dose: 400.0 mg/kg/injection, schedule: Q04DX003 (ip), vehicle: saline with Tween-80 103 % of control

COc1ccc(/C=N/N=C(\N)N[N+](=O)[O-])cc1OC
inactive: dose: 100.0 mg/kg/injection, schedule: Q01DX009 (ip), vehicle: saline with Tween-80 102 % of control | dose: 100.0 mg/kg/injection, schedule: Q04DX003 (ip), vehicle: saline sonified 92 % of control | dose: 200.0 mg/kg/injection, schedule: Q01DX009 (ip), vehicle: saline with Tween-80 98 % of control | dose: 200.0 mg/kg/injection, schedule: Q04DX003 (ip), vehicle: saline sonified 97 % of control | dose: 400.0 mg/kg/injection, schedule: Q01DX009 (ip), vehicle: saline with Tween-80 97 % of control | dose: 400.0 mg/kg/injection, schedule: Q04DX003 (ip), vehicle: saline sonified 91 % of control

CCOC(=O)C1C(=O)CC(=O)C(C(=O)OCC)C1c1ccc(O)cc1 (centres undefined)
inactive: [1] 95 % of control | [2] 97 % of control | [3] 98 % of control | [4] 104 % of control | [5] 97 % of control | [6] 107 % of control

Nc1c(F)c(N)c(F)c(F)c1F
inactive: dose: 5.0 mg/kg/injection, schedule: Q01DX001 (ip), vehicle: acetone 98 % of control | dose: 10.0 mg/kg/injection, schedule: Q01DX001 (ip), vehicle: acetone 121 % of control | dose: 20.0 mg/kg/injection, schedule: Q01DX001 (ip), vehicle: acetone 107 % of control | dose: 20.0 mg/kg/injection, schedule: Q04DX002 (ip), vehicle: saline with Tween-80 106 % of control and 115 % of control | dose: 40.0 mg/kg/injection, schedule: Q01DX001 (ip), vehicle: acetone 106 % of control | dose: 40.0 mg/kg/injection, schedule: Q04DX002 (ip), vehicle: saline with Tween-80 95 % of control and 105 % of control | dose: 80.0 mg/kg/injection, schedule: Q01DX001 (ip), vehicle: acetone 101 % of control | dose: 80.0 mg/kg/injection, schedule: Q04DX002 (ip), vehicle: saline with Tween-80 98 % of control and 114 % of control

OCC#CCO
inactive: dose: 5.0 mg/kg/injection, schedule: Q01DX001 (ip), vehicle: carboxymethylcellulose (CMC) 95 % of control | dose: 10.0 mg/kg/injection, schedule: Q01DX001 (ip), vehicle: carboxymethylcellulose (CMC) 104 % of control | dose: 12.0 mg/kg/injection, schedule: Q04DX003 (ip), vehicle: saline 98 % of control | dose: 20.0 mg/kg/injection, schedule: Q01DX001 (ip), vehicle: carboxymethylcellulose (CMC) 93 % of control | [7] 104 % of control | dose: 40.0 mg/kg/injection, schedule: Q01DX001 (ip), vehicle: carboxymethylcellulose (CMC) 106 % of control | dose: 50.0 mg/kg/injection, schedule: Q01DX009 (ip), vehicle: other 105 % of control | dose: 50.0 mg/kg/injection, schedule: Q04DX003 (ip), vehicle: saline 95 % of control | dose: 80.0 mg/kg/injection, schedule: Q01DX001 (ip), vehicle: carboxymethylcellulose (CMC) 95 % of control

O=C(O)CCNCCO
inactive: dose: 100.0 mg/kg/injection, schedule: Q01DX009 (ip), vehicle: saline 98 % of control | dose: 200.0 mg/kg/injection, schedule: Q01DX009 (ip), vehicle: saline 98 % of control

O=C(O)C1OC(n2cc(F)c(=O)[nH]c2=O)CC1O (centres undefined)
inactive: dose: 50.0 mg/kg/injection, schedule: Q01DX001 (ip), vehicle: saline 101 % of control | dose: 100.0 mg/kg/injection, schedule: Q01DX001 (ip), vehicle: saline 101 % of control | dose: 200.0 mg/kg/injection, schedule: Q01DX001 (ip), vehicle: saline 98 % of control | dose: 400.0 mg/kg/injection, schedule: Q01DX001 (ip), vehicle: saline 110 % of control

CC(=O)OCC1OC2OC(C)(C)OC2C1NC(=O)N(C)C(C)=O (centres undefined)
inactive: dose: 100.0 mg/kg/injection, schedule: Q04DX002 (ip), vehicle: saline 87 % of control | dose: 200.0 mg/kg/injection, schedule: Q04DX002 (ip), vehicle: saline 103 % of control | dose: 400.0 mg/kg/injection, schedule: Q04DX002 (ip), vehicle: saline 90 % of control

CN1CN(c2ccccc2)C2(CCN(CCCCCCCl)CC2)C1=O
inactive: dose: 75.0 mg/kg/injection, schedule: Q04DX003 (ip), vehicle: Klucel (hydroxypropylcellulose) (HPC) 95 % of control | dose: 150.0 mg/kg/injection, schedule: Q04DX003 (ip), vehicle: Klucel (hydroxypropylcellulose) (HPC) 96 % of control | dose: 300.0 mg/kg/injection, schedule: Q04DX003 (ip), vehicle: Klucel (hydroxypropylcellulose) (HPC) 95 % of control

CCOC(=O)C(Br)C(Br)c1cccc([N+](=O)[O-])c1 (centres undefined)
inactive: dose: 100.0 mg/kg/injection, schedule: Q01DX009 (ip), vehicle: other 105 % of control | dose: 100.0 mg/kg/injection, schedule: Q04DX003 (ip), vehicle: other 106 % of control | dose: 200.0 mg/kg/injection, schedule: Q04DX003 (ip), vehicle: other 94 % of control | dose: 400.0 mg/kg/injection, schedule: Q04DX003 (ip), vehicle: other 86 % of control

CC(=O)Nc1cccc(OCCCOc2ccc([N+](=O)[O-])cc2)c1
inactive: dose: 100.0 mg/kg/injection, schedule: Q01DX001 (ip), vehicle: carboxymethylcellulose (CMC) 95 % of control | dose: 200.0 mg/kg/injection, schedule: Q01DX001 (ip), vehicle: carboxymethylcellulose (CMC) 101 % of control | dose: 400.0 mg/kg/injection, schedule: Q01DX001 (ip), vehicle: carboxymethylcellulose (CMC) 90 % of control

Cc1cccc(NC(=S)N2CCOCC2)c1
inactive: dose: 87.5 mg/kg/injection, schedule: Q01DX009 (ip), vehicle: Klucel (hydroxypropylcellulose) (HPC) 110 % of control | dose: 175.0 mg/kg/injection, schedule: Q01DX009 (ip), vehicle: Klucel (hydroxypropylcellulose) (HPC) 100 % of control | dose: 350.0 mg/kg/injection, schedule: Q01DX009 (ip), vehicle: Klucel (hydroxypropylcellulose) (HPC) 108 % of control

CC(=O)Nc1ccccc1C(C#N)Cc1ccccc1 (centres undefined)
inactive: dose: 75.0 mg/kg/injection, schedule: Q01DX001 (ip), vehicle: other 96 % of control | dose: 150.0 mg/kg/injection, schedule: Q01DX001 (ip), vehicle: other 101 % of control | dose: 300.0 mg/kg/injection, schedule: Q01DX001 (ip), vehicle: other 101 % of control

O=[N+]([O-])c1ccc(OCCC[P+](c2ccccc2)(c2ccccc2)c2ccccc2)c(Cl)c1
inactive: dose: 3.12 mg/kg/injection, schedule: Q01DX009 (ip), vehicle: saline 98 % of control | dose: 6.25 mg/kg/injection, schedule: Q01DX009 (ip), vehicle: saline 95 % of control | dose: 6.25 mg/kg/injection, schedule: Q04DX003 (ip), vehicle: saline 94 % of control | dose: 12.5 mg/kg/injection, schedule: Q01DX009 (ip), vehicle: saline 86 % of control and 87 % of control | dose: 12.5 mg/kg/injection, schedule: Q04DX003 (ip), vehicle: saline 92 % of control | [7] 90 % of control
